Laboratory results taken from PMC7170309, “Imidazopyridine-fused [1,3]diazepinones: modulations of positions 2 to 4 and their impacts on the anti-melanoma activity” (Journal of Enzyme Inhibition and Medicinal Chemistry, 2020).

Legend:
A375 melanoma cells = experiment: Neutral red uptake (NRU) viability assay, A375; format: cell-based, human; details: Homo sapiens, A-375, 72 h, mean ± SD of three experiments
Experimental: Melanoma human cancer cell line (A375 and MDA-MB-435) were obtained from ATCC. The NIH-3T3 cell line was generously gifted by the ANSM (French National Agency for Medicines and Health Products Safety, Vendargues, France). Cells were cultured in Dulbecco’s Modified Eagle Medium (DMEM, Sigma Aldrich) supplemented with 10% heat-inactivated foetal calf serum (FCS, Gibco), 2 mM glutamax (Gibco), 100 IU/mL penicillin G sodium (Sigma Aldrich), 100 lU/mL streptomycin sulphate (Sigma Aldrich). The cells were allowed to grow at 37 °C in a fully humidified atmosphere containing 5% CO2.
A viability assay was used to evaluate the cytotoxic activity on A375 and MDA-MB-435 melanoma cells as previously described. According to OCDE/ICCVAM guidance n°129, NRU assay was also used to evaluate the toxicity on the non-cancerous NIH-3T3 cells. Cells were seeded at a final concentration of 2000 cells/well (A375), 3000 cells/well (NIH-3T3) or 7500 cells/well (MDA-MB-435) in 96-well microtiter plates for 24 h. Then, cells were exposed to two negative controls (1% DMSO in culture medium (vehicle) and culture medium alone), or to different compounds freshly dissolved in DMSO, in a range of concentration from 0.01 to 40 µM (six wells per concentration). After 72 h of incubation, cells were stained with new medium containing 50 µg/mL of neutral red (3-amino-7-dimethylamino-2-methylphenazine hydrochloride, Sigma Aldrich) at 37 °C for 2 h. The neutral red medium solution was then removed and the wells were washed with PBS. Finally, 100 µL of solution containing ethanol, acetic acid and water (50/1/49 v/v/v respectively) were added into the wells and the absorbance was measured at 540 nm using the microplate reader 352 Multiscan MS (Labsystems). Cell survival rates were normalised to the absorbance values of untreated control cells. IC50 was obtained using a logistic regression model on Graphpad Prism 5.0 software. Results are given as the mean ± standard deviation (SD) of three independent experiments. Statistical analysis was performed using the Student’s t-test.

[1] = test system: NCI-60 cancer cell line panel; experiment: NCI-60 SRB assay, whole panel; format: cell-based, human; details: 10 µM, 48 h
Experimental: (§1) Primary anticancer assay was performed on a panel of 60 human cancer cell lines derived from nine neoplastic diseases, in accordance with the protocol of the Drug Evaluation Branch, National Cancer Institute, Bethesda, Maryland, USA[22]. Cells were incubated with tested compounds at 10 µM for 48 h. The growth percentage was evaluated spectrophotometrically using a protein binding dye, SRB. Results for each tested compound were reported as the percent of growth of treated cells when compared to untreated control cells.
(§2) To better compare the activity profile of these two series of compounds, compounds 5 and 8 were selected and then evaluated towards a panel of sixty cancer cell lines corresponding to nine different cancer types, i.e. leukaemia, melanoma, as well as lung, colon, central nervous system, ovarian, renal, prostate and breast cancers (NCI evaluation). Indeed, it is now well established that the growth inhibitory patterns of anticancer drugs against the NCI-60 cell line panel correlated well with their modes of action. For example, compounds that bind to tubulin have similar growth inhibition patterns regardless of which site on tubulin they bind[30]. […] Compounds were tested using the sulforhodamine B (SRB) assay that provides a direct cell density index. The amount of dye incorporated by the cells increases with the increase of the total protein biomass. Cells were incubated for 48 h with compounds at 10 µM concentration, then cell growth was evaluated spectrophotometrically and presented as the percent of untreated control cells. Values of the most sensitive cell lines were compared to those obtained with JMV5038 (Figure 4, for all data see SI).

A549/ATCC = experiment: NCI-60 SRB assay, A549/ATCC (NSCLC); format: cell-based, human; details: 10 µM, 48 h
Experimental: as §1, §2

NCI-H522 = experiment: NCI-60 SRB assay, NCI-H522 (NSCLC); format: cell-based, human; details: 10 µM, 48 h
Experimental: as §1, §2

HCC-2998 = experiment: NCI-60 SRB assay, HCC-2998 (Colon Cancer); format: cell-based, human; details: 10 µM, 48 h;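 for Mean G% - G%: mean growth across the NCI-60 panel minus this line's growth with positive meaning more sensitive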
Experimental: as §1, §2

HT29 = experiment: NCI-60 SRB assay, HT29 (Colon Cancer); format: cell-based, human; details: 10 µM, 48 h;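 for Mean G% - G%: mean growth across the NCI-60 panel minus this line's growth with positive meaning more sensitive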
Experimental: as §1, §2

KM12 = experiment: NCI-60 SRB assay, KM12 (Colon Cancer); format: cell-based, human; details: 10 µM, 48 h
Experimental: as §1, §2

SW-620 = experiment: NCI-60 SRB assay, SW-620 (Colon Cancer); format: cell-based, human; details: 10 µM, 48 h
Experimental: as §1, §2

SF-295 = experiment: NCI-60 SRB assay, SF-295 (CNS Cancer); format: cell-based, human; details: 10 µM, 48 h
Experimental: as §1, §2

SF-539 = experiment: NCI-60 SRB assay, SF-539 (CNS Cancer); format: cell-based, human; details: 10 µM, 48 h
Experimental: as §1, §2

SNB-75 = experiment: NCI-60 SRB assay, SNB-75 (CNS Cancer); format: cell-based, human; details: 10 µM, 48 h
Experimental: as §1, §2

MALME-3M = experiment: NCI-60 SRB assay, MALME-3M (Melanoma); format: cell-based, human; details: 10 µM, 48 h
Experimental: as §1, §2

M14 = experiment: NCI-60 SRB assay, M14 (Melanoma); format: cell-based, human; details: 10 µM, 48 h
Experimental: as §1, §2

MDA-MB-435 = experiment: NCI-60 SRB assay, MDA-MB-435 (Melanoma); format: cell-based, human; details: MDA-MB-435, 10 µM, 48 h, SRB;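 for Mean G% - G%: mean growth across the NCI-60 panel minus this line's growth with positive meaning more sensitive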
Experimental: as §1, §2

SK-MEL-28 = experiment: NCI-60 SRB assay, SK-MEL-28 (Melanoma); format: cell-based, human; details: 10 µM, 48 h
Experimental: as §1, §2

OVCAR-3 = experiment: NCI-60 SRB assay, OVCAR-3 (Ovarian Cancer); format: cell-based, human; details: 10 µM, 48 h;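 for Mean G% - G%: mean growth across the NCI-60 panel minus this line's growth with positive meaning more sensitive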
Experimental: as §1, §2

NCI/ADR-RES = experiment: NCI-60 SRB assay, NCI/ADR-RES (Ovarian Cancer); format: cell-based, human; details: 10 µM, 48 h
Experimental: as §1, §2

SK-OV-3 = experiment: NCI-60 SRB assay, SK-OV-3 (Ovarian Cancer); format: cell-based, human; details: 10 µM, 48 h
Experimental: as §1, §2

A498 = experiment: NCI-60 SRB assay, A498 (Renal Cancer); format: cell-based, human; details: 10 µM, 48 h
Experimental: as §1, §2

ACHN = experiment: NCI-60 SRB assay, ACHN (Renal Cancer); format: cell-based, human; details: 10 µM, 48 h
Experimental: as §1, §2

CAKI-1 = experiment: NCI-60 SRB assay, CAKI-1 (Renal Cancer); format: cell-based, human; details: 10 µM, 48 h
Experimental: as §1, §2

MDA-MB-231 = experiment: NCI-60 SRB assay, MDA-MB-231 (Breast Cancer); format: cell-based, human; details: 10 µM, 48 h
Experimental: as §1, §2

T-47D = experiment: NCI-60 SRB assay, T-47D (Breast Cancer); format: cell-based, human; details: 10 µM, 48 h
Experimental: as §1, §2

[N-]=[N+]=NCCCC[C@@H]1NC(c2ccc(Br)cc2)=Nc2nc3ccccn3c2C1=O [Compound 16, (4S)-4-(4-azidobutyl)-2-(4-bromophenyl)-3,4-dihydro-5H-pyrido[1’,2’:1,2]imidazo[4,5-d][1,3]diazepin-5-one]
IC50 (A375 melanoma cells): 3.68 ± 0.63 µM
Mean G% (mean growth over the panel) [1]: 91.77%
Mean G% - G% (A549/ATCC): 16,61%
G% (A549/ATCC; growth vs untreated control): 75,16%
Mean G% - G% (NCI-H522): 7,01%
G% (NCI-H522; growth vs untreated control): 84,76%
Mean G% - G% (HCC-2998): -20,61%
G% (HCC-2998; growth vs untreated control): 112,38%
Mean G% - G% (HT29): -14,13%
G% (HT29; growth vs untreated control): 105,90%
Mean G% - G% (KM12): 10,11%
G% (KM12; growth vs untreated control): 81,66%
Mean G% - G% (SW-620): -0,19%
G% (SW-620; growth vs untreated control): 91,96%
Mean G% - G% (SF-295): -4,02%
G% (SF-295; growth vs untreated control): 95,79%
Mean G% - G% (SF-539): -6,24%
G% (SF-539; growth vs untreated control): 98,01%
Mean G% - G% (SNB-75): 4,12%
G% (SNB-75; growth vs untreated control): 87,65%
Mean G% - G% (MALME-3M): -22,73%
G% (MALME-3M; growth vs untreated control): 114,50%
Mean G% - G% (M14): -14,11%
G% (M14; growth vs untreated control): 105,88%
Mean G% - G% (MDA-MB-435): -13,77%
G% (MDA-MB-435; growth vs untreated control): 105,54%
Mean G% - G% (SK-MEL-28): -18,13%
G% (SK-MEL-28; growth vs untreated control): 109,90%
Mean G% - G% (OVCAR-3): -11,51%
G% (OVCAR-3; growth vs untreated control): 103,28%
Mean G% - G% (NCI/ADR-RES): -9,49%
G% (NCI/ADR-RES; growth vs untreated control): 101,26%
Mean G% - G% (SK-OV-3): 5,78%
G% (SK-OV-3; growth vs untreated control): 85,99%
Mean G% - G% (A498): 8,90%
G% (A498; growth vs untreated control): 82,87%
Mean G% - G% (ACHN): 3,57%
G% (ACHN; growth vs untreated control): 88,20%
Mean G% - G% (CAKI-1): 7,26%
G% (CAKI-1; growth vs untreated control): 84,51%
Mean G% - G% (MDA-MB-231): 16,73%
G% (MDA-MB-231; growth vs untreated control): 75,04%
Mean G% - G% (T-47D): 10,17%
G% (T-47D; growth vs untreated control): 81,60%
melting point: 127 to 128 °C
